The values that follow come from patent publication US9409905B2, “Antibacterial compounds and methods for use” (PTC THERAPEUTICS, INC., priority 2011, dated 2016).

Values after ≈ are worked out from the molar mass of the structure shown.

Test [1] relates to Escherichia coli (E. coli) BAS849. Kind of test: Antibacterial activity, microbroth dilution MIC (Table 1). The class given is cell-based. Conditions: microbroth dilution, super sensitive Gram-negative E. coli BAS849, read-out: MIC, BAS849. The gist of the method: (§1)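 Using broth microdilution, MIC endpoints (μg/mL) mark where visible growth no longer appears; the panel spans sensitive and control Gram-negative strains plus a Gram-positive strain.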

The subject of test [2] is Staphylococcus aureus (S. aureus) 29213. The test is described as above. Conditions: microbroth dilution, Gram-positive S. aureus 29213, read-out: MIC, 29213. Type of test: cell-based. The gist of the method: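 Broth microdilution against S. aureus 29213, E. coli 25922 and hypersensitive E. coli BAS849. MIC in μg/mL is the lowest drug concentration preventing macroscopically visible growth under test conditions.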

The test system of another test is E. coli 25922. Described as above. The note with it: Escherichia coli; microbroth dilution; control Gram-negative E. coli 25922 strain; read-out: MIC, 25922. Type of test: cell-based, Escherichia coli. A digest of the protocol:
as §1

A further test concerns E. coli LZ3111. Kind of test: Antibacterial activity, MIC, quinolone resistant strain (Table 2). The class given is cell-based. The note with it: Escherichia coli, LZ3111, read-out: MIC LZ3111. The gist of the method: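 Growth inhibition assessed by serial drug dilution in broth; endpoint was absence of macroscopically visible growth, reported as MIC, μg/mL.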
For another test, the system named is E. coli ELZ4000. As to the kind of experiment: Antibacterial activity, MIC, multi-drug resistant clinical isolate (Table 3). Type of test: cell-based. Conditions: Escherichia coli, ELZ4000, read-out: MIC ELZ4000. A digest of the protocol: (§2)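 Values derive from a microbroth dilution method, taking as MIC (μg/mL) the lowest tested concentration without macroscopically visible growth.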

In the next test the test system is E. coli ELZ4251. The test is described as above. Type of test: cell-based. The note with it: Escherichia coli. The gist of the method: as §2
The test system of test [3] is Acinetobacter baumannii (A. baumannii) BAA747. As to the kind of experiment: Antibacterial activity, MIC (Table 4). The class given is cell-based. The note with it: A. baumannii BAA747, read-out: MIC, BAA747. The gist of the method: (§3)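 MIC in μg/mL by microbroth dilution, scored as the lowest level that suppresses visible growth.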
The subject of test [4] is Klebsiella pneumoniae (K. pneumoniae) 35657. Kind of test: Antibacterial activity, MIC (Table 4). The class given is cell-based. The note with it: K. pneumoniae 35657, read-out: MIC, 35657. A digest of the protocol: as §3
In the next test the test system is A. baumannii MXX2240. Kind of test: Antibacterial activity, MIC, resistant strain (Table 4). The class given is cell-based. Conditions: Acinetobacter baumannii, MXX2240; resistant A. baumannii MMX2240, multi-drug resistant clinical isolate; read-out: MIC, MMX2240. The gist of the method: as §3
The test system of the next test is K. pneumoniae MXX1232. The test is described as above. The class given is cell-based. The note with it: Klebsiella pneumoniae, MXX1232; resistant K. pneumoniae MMX1232, multi-drug resistant clinical isolate; read-out: MIC, MMX1232. The gist of the method:
as §3

The subject of test [5] is Pseudomonas aeruginosa (P. aeruginosa) 27853. As to the kind of experiment: Antibacterial activity, MIC (Table 5). Type of test: cell-based. Conditions: P. aeruginosa 27853, read-out: MIC, 27853. A digest of the protocol:
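Using a microbroth dilution format, the minimum inhibitory concentration was recorded as the lowest tested concentration that stopped visible bacterial growth, expressed in μg/mL.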

The subject of test [6] is Neisseria meningitidis (N. meningitidis) 13090. Kind of test: Antibacterial activity, MIC (Table 8). The class given is cell-based. The text has this:
The antibacterial activity from a microbroth dilution method may be presented as the minimum inhibitory concentration (MIC in μg/mL). The MIC value is the lowest concentration of drug which prevents macroscopically visible growth under test conditions.
Antibacterial activity of test compounds against the Gram-negative bacteria Haemophilus influenzae (H. influenzae) 49247 is shown in Table 6, Moraxella catarrhalis (M. catarrhalis) 25238 is shown in Table 7 and Neisseria meningitidis (N. meningitidis) 13090 is shown in Table 8.

As for `CCc1cc(C(=O)O)c(=O)[nH]c1-c1ccc2c(c1)cc(CN(C)C)n2C` [Cpd 122, 6-(2-((dimethylamino)methyl)-1-methyl-1H-indol-5-yl)-5-ethyl-2-oxo-1,2-dihydropyridine-3-carboxylic acid], the MIC in [1] is below 1 µg/mL; in [2], 12.5 to 150 µg/mL (≈ 35.4 to 424 µM); in the test on E. coli 25922, below 1 µg/mL; in the test on E. coli LZ3111 it was 12.5 to 150 µg/mL (≈ 35.4 to 424 µM); in the test on E. coli ELZ4000, 12.5 to 150 µg/mL (≈ 35.4 to 424 µM); with E. coli ELZ4251, 12.5 to 150 µg/mL (≈ 35.4 to 424 µM). The minimal inhibitory concentration (MIC) in [3] is below 1 µg/mL; in [4], below 1 µg/mL; with A. baumannii MXX2240 it was 12.5 to 150 µg/mL (≈ 35.4 to 424 µM); in the test with K. pneumoniae MXX1232, 12.5 to 150 µg/mL (≈ 35.4 to 424 µM); in test [5] it was 3.5 to 12.5 µg/mL (≈ 9.9 to 35.4 µM); in [6], below 1 µg/mL.

Turning to `CCc1cc(C(=O)O)c(=O)[nH]c1-c1ccc2c(c1)cc(CN1CCCC1)n2C` [Cpd 124, 5-ethyl-6-(1-methyl-2-(pyrrolidin-1-ylmethyl)-1H-indol-5-yl)-2-oxo-1,2-dihydropyridine-3-carboxylic acid], the MIC in test [1] is below 1 µg/mL; in [2] it was 12.5 to 150 µg/mL (≈ 32.9 to 395 µM); in the test with E. coli 25922 it was below 1 µg/mL; with E. coli LZ3111, 12.5 to 150 µg/mL (≈ 32.9 to 395 µM); with E. coli ELZ4000, 12.5 to 150 µg/mL (≈ 32.9 to 395 µM); in the test on E. coli ELZ4251, 12.5 to 150 µg/mL (≈ 32.9 to 395 µM). Besides, the minimum inhibitory concentration (MIC) in test [3] was below 1 µg/mL; in test [4], 1 to 3.5 µg/mL (≈ 2.64 to 9.22 µM); in the test with A. baumannii MXX2240, 12.5 to 150 µg/mL (≈ 32.9 to 395 µM); with K. pneumoniae MXX1232, 12.5 to 150 µg/mL (≈ 32.9 to 395 µM); in test [5], 3.5 to 12.5 µg/mL (≈ 9.22 to 32.9 µM); in [6], below 1 µg/mL.

`CCc1cc(C(=O)O)c(=O)[nH]c1-c1ccc2c(c1)cc(CCN1CCCCC1)n2C` [Cpd 160, 5-ethyl-6-(1-methyl-2-(2-(piperidin-1-yl)ethyl)-1H-indol-5-yl)-2-oxo-1,2-dihydropyridine-3-carboxylic acid]: the MIC in test [1] was below 1 µg/mL; in test [2], 12.5 to 150 µg/mL (≈ 30.7 to 368 µM); in the test on E. coli 25922, below 1 µg/mL; with E. coli LZ3111, 12.5 to 150 µg/mL (≈ 30.7 to 368 µM); with E. coli ELZ4000 it was 12.5 to 150 µg/mL (≈ 30.7 to 368 µM); in the test on E. coli ELZ4251, 12.5 to 150 µg/mL (≈ 30.7 to 368 µM). Also, the MIC is 1 to 3.5 µg/mL (≈ 2.45 to 8.59 µM) in [3]; below 1 µg/mL in test [4]; 12.5 to 150 µg/mL (≈ 30.7 to 368 µM) in the test on A. baumannii MXX2240; 12.5 to 150 µg/mL (≈ 30.7 to 368 µM) in the test on K. pneumoniae MXX1232; 12.5 to 150 µg/mL (≈ 30.7 to 368 µM) in [5].

Turning to `CCc1cc(C(=O)O)c(=O)[nH]c1-c1ccc2c(c1)cc(CCN(C)C)n2C` [Cpd 161, 6-(2-(2-(dimethylamino)ethyl)-1-methyl-1H-indol-5-yl)-5-ethyl-2-oxo-1,2-dihydropyridine-3-carboxylic acid], the MIC in test [1] is below 1 µg/mL; in test [2], 12.5 to 150 µg/mL (≈ 34 to 408 µM); in the test on E. coli 25922, below 1 µg/mL; in the test with E. coli LZ3111 it was 12.5 to 150 µg/mL (≈ 34 to 408 µM); in the test on E. coli ELZ4000, 12.5 to 150 µg/mL (≈ 34 to 408 µM); with E. coli ELZ4251 it was 12.5 to 150 µg/mL (≈ 34 to 408 µM). Further, the minimal inhibitory concentration (MIC) in test [3] was 3.5 to 12.5 µg/mL (≈ 9.53 to 34 µM); in test [4], below 1 µg/mL; in the test on A. baumannii MXX2240, 12.5 to 150 µg/mL (≈ 34 to 408 µM); in the test on K. pneumoniae MXX1232 it was 12.5 to 150 µg/mL (≈ 34 to 408 µM); in [5], 3.5 to 12.5 µg/mL (≈ 9.53 to 34 µM).

`CCc1c(-c2ccc3c(c2)cc(CN2CCCC2)n3C)[nH]c(=O)c(C(=O)O)c1O` [Cpd 164, 5-ethyl-4-hydroxy-6-(1-methyl-2-(pyrrolidin-1-ylmethyl)-1H-indol-5-yl)-2-oxo-1,2-dihydropyridine-3-carboxylic acid]: the MIC in test [1] was below 1 µg/mL; in test [2] it was 3.5 to 12.5 µg/mL (≈ 8.85 to 31.6 µM); with E. coli 25922 it was below 1 µg/mL; with E. coli LZ3111 it was 3.5 to 12.5 µg/mL (≈ 8.85 to 31.6 µM); with E. coli ELZ4000, 12.5 to 150 µg/mL (≈ 31.6 to 379 µM); against E. coli ELZ4251, 12.5 to 150 µg/mL (≈ 31.6 to 379 µM). For the same molecule, the MIC in test [3] was below 1 µg/mL; in test [4], 3.5 to 12.5 µg/mL (≈ 8.85 to 31.6 µM); with A. baumannii MXX2240, 3.5 to 12.5 µg/mL (≈ 8.85 to 31.6 µM); in the test with K. pneumoniae MXX1232, 12.5 to 150 µg/mL (≈ 31.6 to 379 µM); in test [5], 3.5 to 12.5 µg/mL (≈ 8.85 to 31.6 µM).
